Article PMC6010916, “Safety and pharmacokinetics of veliparib extended‐release in patients with advanced solid tumors: a phase I study” (Cancer Medicine, 2018)

What was measured:
[1] = Safety: treatment-emergent adverse events (NCI CTCAE version 4.0); type: in vivo, human
Protocol: Adverse event (AE) severity was assessed according to the National Cancer Institute Common Terminology Criteria for Adverse Events (NCI CTCAE) version 4.0. Tumor evaluations were performed at screening, every 8 weeks after the first administration of study drug, and at the final visit using radiographic measurements from computed tomography or magnetic resonance imaging. Objective tumor responses were evaluated using RECIST version 1.1 criteria. Patients who received one or more doses of veliparib were included in the PK and safety analyses, as well as for evaluation of time to disease progression (TTP). Patients with one or more measurable lesion at baseline were included in the analysis of objective responses.

[2] = cited from earlier work
[3] = cited from earlier work; remark: listed apart in the source
[4] = Cycle 1, Part 1, extension (n = 24)

C[C@]1(c2nc3c(C(N)=O)cccc3[nH]2)CCCN1 [veliparib]
TEAE: Decreased appetite ([1]; All cycles, Part 3 (n = 12)): 2 (16.7) n (%) | TEAE: Diarrhea ([1]; All cycles, Part 3 (n = 12)): 6 (50.0) n (%) | TEAE: Fatigue ([1]; All cycles, Part 3 (n = 12)): 2 (16.7) n (%) | TEAE: NCI CTCAE grade 3 or 4 ([1]; All cycles, Part 3 (n = 12)): 4 (33.3) n (%) | TEAE: Nausea ([1]; All cycles, Part 3 (n = 12)): 9 (75.0) n (%) | TEAE: Nausea, Grade 1 ([1]; All cycles, Part 3 (n = 12)): 6 (50.0) n (%) | TEAE: Nausea, Grade 2 ([1]; All cycles, Part 3 (n = 12)): 2 (16.7) n (%) | TEAE: Nausea, Grade 3 ([1]; All cycles, Part 3 (n = 12)): 1 (8.3) n (%) | TEAE: Urinary tract infection ([1]; All cycles, Part 3 (n = 12)): 3 (25.0) n (%) | TEAE: Vomiting ([1]; All cycles, Part 3 (n = 12)): 7 (58.3) n (%) | TEAE: Vomiting, Grade 1 ([1]; All cycles, Part 3 (n = 12)): 4 (33.3) n (%) | TEAE: Vomiting, Grade 2 ([1]; All cycles, Part 3 (n = 12)): 2 (16.7) n (%) | TEAE: Vomiting, Grade 3 ([1]; All cycles, Part 3 (n = 12)): 1 (8.3) n (%) | Any SAE ([1]; Cycle 1, All patients (N = 71)): 10 (14.1) n (%) | SAE leading to discontinuation ([1]; Cycle 1, All patients (N = 71)): 4 (5.6) n (%) | SAE leading to dose interruption ([1]; Cycle 1, All patients (N = 71)): 6 (8.5) n (%) | SAE leading to dose reduction ([1]; Cycle 1, All patients (N = 71)): 1 (1.4) n (%) | TEAE: Any AE ([1]; Cycle 1, All patients (N = 71)): 67 (94.4) n (%) | TEAE: At least possibly related to study drug ([1]; Cycle 1, All patients (N = 71)): 50 (70.4) n (%) | TEAE: NCI CTCAE grade 3 or 4 ([1]; Cycle 1, All patients (N = 71)): 13 (18.3) n (%) | Any SAE [1, 4]: 4 (16.7) n (%) | SAE leading to discontinuation [1, 4]: 3 (12.5) n (%) | SAE leading to dose interruption [1, 4]: 2 (8.3) n (%) | SAE leading to dose reduction [1, 4]: 0 n (%) | TEAE: Any AE [1, 4]: 23 (95.8) n (%) | TEAE: At least possibly related to study drug [1, 4]: 14 (58.3) n (%) | TEAE: NCI CTCAE grade 3 or 4 [1, 4]: 4 (16.7) n (%) | Any SAE ([1]; Cycle 1, Part 2 (n = 35)): 5 (14.3) n (%) | SAE leading to discontinuation ([1]; Cycle 1, Part 2 (n = 35)): 1 (2.9) n (%) | SAE leading to dose interruption ([1]; Cycle 1, Part 2 (n = 35)): 3 (8.6) n (%) | SAE leading to dose reduction ([1]; Cycle 1, Part 2 (n = 35)): 1 (2.9) n (%) | TEAE: Any AE ([1]; Cycle 1, Part 2 (n = 35)): 34 (97.1) n (%) | TEAE: At least possibly related to study drug ([1]; Cycle 1, Part 2 (n = 35)): 29 (82.9) n (%) | TEAE: NCI CTCAE grade 3 or 4 ([1]; Cycle 1, Part 2 (n = 35)): 8 (22.9) n (%) | Any SAE ([1]; Cycle 1, Part 3 (n = 12)): 1 (8.3) n (%) | SAE leading to discontinuation ([1]; Cycle 1, Part 3 (n = 12)): 0 n (%) | SAE leading to dose interruption ([1]; Cycle 1, Part 3 (n = 12)): 1 (8.3) n (%) | SAE leading to dose reduction ([1]; Cycle 1, Part 3 (n = 12)): 0 n (%) | TEAE: Any AE ([1]; Cycle 1, Part 3 (n = 12)): 10 (83.3) n (%) | TEAE: At least possibly related to study drug ([1]; Cycle 1, Part 3 (n = 12)): 7 (58.3) n (%) | TEAE: NCI CTCAE grade 3 or 4 ([1]; Cycle 1, Part 3 (n = 12)): 1 (8.3) n (%) | Any SAE ([1]; Part 1, PK BA portion (n = 24)): 2 (8.3) n (%) | SAE leading to discontinuation ([1]; Part 1, PK BA portion (n = 24)): 0 n (%) | SAE leading to dose interruption ([1]; Part 1, PK BA portion (n = 24)): 1 (4.2) n (%) | SAE leading to dose reduction ([1]; Part 1, PK BA portion (n = 24)): 0 n (%) | TEAE: Any AE ([1]; Part 1, PK BA portion (n = 24)): 17 (70.8) n (%) | TEAE: At least possibly related to study drug ([1]; Part 1, PK BA portion (n = 24)): 7 (29.2) n (%) | TEAE: NCI CTCAE grade 3 or 4 ([1]; Part 1, PK BA portion (n = 24)): 2 (8.3) n (%) | TEAE: Abdominal pain ([1]; Part 1, PK phase (n = 24)): 3 (12.5) n (%) | TEAE: Anemia ([1]; Part 1, PK phase (n = 24)): 1 (4.2) n (%) | TEAE: Constipation ([1]; Part 1, PK phase (n = 24)): 0 n (%) | TEAE: Decreased appetite ([1]; Part 1, PK phase (n = 24)): 1 (4.2) n (%) | TEAE: Diarrhea ([1]; Part 1, PK phase (n = 24)): 2 (8.3) n (%) | TEAE: Fatigue ([1]; Part 1, PK phase (n = 24)): 0 n (%) | TEAE: Nausea ([1]; Part 1, PK phase (n = 24)): 4 (16.7) n (%) | TEAE: Nausea, Grade 1 ([1]; Part 1, PK phase (n = 24)): 4 (16.7) n (%) | TEAE: Nausea, Grade 2 ([1]; Part 1, PK phase (n = 24)): 0 n (%) | TEAE: Nausea, Grade 3 ([1]; Part 1, PK phase (n = 24)): 0 n (%) | TEAE: Urinary tract infection ([1]; Part 1, PK phase (n = 24)): 0 n (%) | TEAE: Vomiting ([1]; Part 1, PK phase (n = 24)): 1 (4.2) n (%) | TEAE: Vomiting, Grade 1 ([1]; Part 1, PK phase (n = 24)): 1 (4.2) n (%) | TEAE: Vomiting, Grade 2 ([1]; Part 1, PK phase (n = 24)): 0 n (%) | TEAE: Vomiting, Grade 3 ([1]; Part 1, PK phase (n = 24)): 0 n (%) | grade 3 or 4 treatment-related anemia, patients ([1]; Part 1 extension/Part 2/Part 3): 0/3/0 | grade 3 or 4 treatment-related nausea, patients ([1]; Part 1 extension/Part 2/Part 3): 0/2/1 | grade 3 or 4 treatment-related thrombocytopenia, patients ([1]; Part 1 extension/Part 2/Part 3): 2/3/0 | TEAE: Abdominal pain ([1]; Total (N = 71)): 17 (23.9) n (%) | TEAE: Constipation ([1]; Total (N = 71)): 23 (32.4) n (%) | TEAE: Decreased appetite ([1]; Total (N = 71)): 15 (21.1) n (%) | TEAE: Diarrhea ([1]; Total (N = 71)): 23 (32.4) n (%) | TEAE: Fatigue ([1]; Total (N = 71)): 23 (32.4) n (%) | TEAE: Nausea ([1]; Total (N = 71)): 56 (78.9) n (%) | TEAE: Nausea, Grade 1 ([1]; Total (N = 71)): 45 (63.4) n (%) | TEAE: Nausea, Grade 2 ([1]; Total (N = 71)): 10 (14.1) n (%) | TEAE: Nausea, Grade 3 ([1]; Total (N = 71)): 3 (4.2) n (%) | TEAE: Urinary tract infection ([1]; Total (N = 71)): 15 (21.1) n (%) | TEAE: Vomiting ([1]; Total (N = 71)): 36 (50.7) n (%) | TEAE: Vomiting, Grade 1 ([1]; Total (N = 71)): 29 (40.8) n (%) | TEAE: Vomiting, Grade 2 ([1]; Total (N = 71)): 5 (7.0) n (%) | TEAE: Vomiting, Grade 3 ([1]; Total (N = 71)): 2 (2.8) n (%) | patients who experienced one or more TEAE ([1]; all cycles, 71 patients): 98.6% | patients with Grade 3 or 4 TEAEs ([1]; all cycles, 71 patients): 39.4% | patients who experienced one or more TEAE ([1]; cycle 1, 71 patients): 94.4% | patients with Grade 3 or 4 TEAEs ([1]; cycle 1, 71 patients): 18.3% | grade 3 or 4 treatment-related anemia ([1]; overall): 4.2% | grade 3 or 4 treatment-related nausea ([1]; overall): 4.2% | grade 3 or 4 treatment-related thrombocytopenia ([1]; overall): 7.0% | TEAE constipation, frequency ([1]; overall, 71 patients): 32.4% | TEAE diarrhea, frequency ([1]; overall, 71 patients): 32.4% | TEAE fatigue, frequency ([1]; overall, 71 patients): 32.4% | TEAE nausea, frequency ([1]; overall, 71 patients): 78.9% | TEAE vomiting, frequency ([1]; overall, 71 patients): 50.7% | RP2D ([2]; single agent, phase I study): 400 mg twice-daily (BID) | patients experiencing grade 3 or 4 neutropenia or thrombocytopenia ([2]; single-agent therapy, phase I and II trials): 2% | patients with dose modifications, predominantly for nausea and vomiting ([2]; single-agent therapy): 78% | absorption [3]: rapid absorption | elimination [3]: predominant elimination through urinary excretion of the unchanged drug | oral bioavailability [3]: high oral bioavailability
